Patent US8911717B2, “Polymalic acid-based multifunctional drug delivery system” (Cedars-Sinai Medical Center, priority 2003, dated 2014)

Key:
[1] = tested on: protein kinase CK2 α chain; assay: Western blot of CK2 expression in cell lysates; assay type: cell-based, human; conditions: U251MG glioma cells treated for 3 days; compared to untreated control or EPEI-treated control
Description: The protein kinase CK2 complex is a tetramer comprised of catalytic α, α′ subunits and regulatory […] subunits that form complexes such as α2β2, αα′β2 and α′2β2. To achieve downregulation of CK2, the antisense oligonucleotides against the CK2 catalytic subunit a were conjugated to PMLA. Morpholino™-NH2 antisense oligonucleotides to the protein kinase CK2 catalytical domain a chain purchased from Gene Tools (USA) were as follows:
Inhibition of CK2 expression in vitro was assessed in the cell lysates of cultured glioma cell line U251MG treated for 3 days with nanoconjugates containing Morpholino antisense oligonucleotides CK2a-1, CK2a-2 or CK2a-3.

[2] = tested on: fresh human RBCs; assay: red blood cell (RBC) hemolysis assay (membrane disruptive activity); assay type: cell-based; conditions: pH 5.85 or pH 5.5; 2.5 nmol/10^8 RBCs; 1 h at 37° C.; absorbance of supernatant at 541 nm
Description: The fresh human RBCs were isolated by centrifugation of whole human blood at 2000 g for 5 min. The RBCs were washed three times with cold 100 mM sodium phosphate buffer of the desired pH (pH 5.85 or pH 5.5). The final pellet was resuspended in the same buffer to give a solution with […] RBCs per 1 ml. The polymers were dissolved in 100 mM dibasic sodium phosphate buffer at the desired pH at a concentration of 10 mg/ml. The polymer concentration was 2.5 nmol/10^8 RBCs. Hemolysis in distilled water was used to produce 100% lysis. RBCs in buffer with no polymer was used as reference controls. The hemolysis assay was performed by adding the polymer solution to the suspended RBCs in 1 ml of the appropriate buffer. The RBCs were mixed by inverting the tube several times, and incubated for 1 h in a 37° C. water bath. After incubation, the RBCs were centrifuged for […] at 13,500×g to sediment intact cells and the lysis was determined by measuring the absorbance of the supernatants at 541 nm which reflects the amount of hemoglobin released by the RBCs. The relative increase 100(A-Ao)/Atotal in absorbance at 541 nm wavelength of the cell-free supernatant was measured as an indicator of membrane rupture. […]

Substance: CK2a-3: PMLA nanoconjugate containing Morpholino antisense oligonucleotide CK2a-3, SEQ ID NO: 5, CGGACAAAGCTGGACTTGATGTTT (all phosphorodiamidate morpholino (PMO); amine-modified morpholino conjugated to polymalic acid nanoconjugate carrier, further chemistry not fully specified)
- CK2 α chain expression, Western blot [1]: reduction

Substance: PMLA/mAB OX-26/morpholino antisense oligonucleotide/L-valine/2-mercaptoethylamine/mPEG-NH2 conjugate [PMLA-PEG-Valine-AS-mAB]
- membrane disruptive activity (effect on RBC membranes) [2]: infer membrane destabilization

Substance: PMLA/L-valine/2-mercaptoethylamine/mPEG-NH2 conjugate [PMLA-PEG-Valine]
- membrane disruptive activity (effect on RBC membranes) [2]: infer membrane destabilization

Substance: CK2a-2: PMLA nanoconjugate containing Morpholino antisense oligonucleotide CK2a-2, SEQ ID NO: 4, CCTGCTTGGCACGGGTCCCGACAT (all phosphorodiamidate morpholino (PMO); amine-modified morpholino conjugated to polymalic acid nanoconjugate carrier, further chemistry not fully specified)
- CK2 α chain expression, Western blot [1]: reduction

Substance: CK2a-1: PMLA nanoconjugate containing Morpholino antisense oligonucleotide CK2a-1, SEQ ID NO: 3, GATCTGGCAGTCACTGTGTTCAGAA (all phosphorodiamidate morpholino (PMO); amine-modified morpholino conjugated to polymalic acid nanoconjugate carrier, further chemistry not fully specified)
- CK2 α chain expression, Western blot [1]: reduction
